Source: patent US10501552B2, “Multivalent molecules comprising DR5-binding domains” (MacroGenics, Inc., priority 2015, dated 2019)

Tests used:
[1] = cited from earlier work
Hs700T = assay: […]-GLO cell viability assay with vorinostat; format: cell-based; details: Hs700T (Pancreas); 1 μg/ml + 1 μM Vorinostat
22RV1 = assay: […]-GLO cell viability assay with vorinostat; format: cell-based; details: 22RV1 (Prostate); 1 μg/ml + 10 μM Vorinostat
Hs746T = assay: […]-GLO cell viability assay with vorinostat; format: cell-based; details: Hs746T (Stomach); 1 μg/ml + 10 μM Vorinostat
BT474 = assay: […]-GLO cell viability assay with vorinostat; format: cell-based; details: BT474 (Breast); 1 μg/ml + 10 μM Vorinostat
ES2 = assay: […]-GLO cell viability assay with vorinostat; format: cell-based; details: ES2 (Ovary); 1 μg/ml + 10 μM Vorinostat
COLO205 = assay: […]-GLO cell viability assay with vorinostat; format: cell-based; details: for Average % Ctrl: one day
Experimental: For the first study COLO205 cells were plated at 2×10^4 cells/well (in 96-well plates), and incubated overnight in F12/DMEM media supplemented with 10% FBS. […] Cell viability was determined using Promega […]-GLO® Luminescent Cell Viability Assay (Cat # G5430) essentially as described in the manufacturer's instructions to assay the amount of ATP present, which is a measure of the number of viable cells in the culture. Briefly, an […]-GLO® Reagent was added to the wells and mixed for two minutes to induce lysis and the luminescence was read in a in PerkinElmer EnVision multilabel plate reader.
Cell viability of cells treated with the test articles is normalized to the corresponding negative control (medium±vorinostat) which is set to 100% and reported in Table 12 as % of control for each test agent alone or % control for each test agent in combination with vorinostat. % of control values less than 100% indicate a reduction in viability and reflect the cytotoxicity of the test article alone or in combination with vorinostat.
The Net Gain (Average % Growth Inhibition)=% Medium Ctrl (10% FBS)−% Medium Ctrl (1/10 μM vorinostat), and represents increased cytotoxicity of the test article in combination with vorinostat over cells treated with vorinostat alone.

LNCap = assay: […]-GLO cell viability assay with vorinostat; format: cell-based, human; details: LNCap (Prostate); 1 μg/ml + 10 μM Vorinostat
AsPC1 = assay: […]-GLO cell viability assay with vorinostat; format: cell-based; details: AsPC1 (Pancreas); 1 μg/ml + 1 μM Vorinostat
MDA-MB-175VII = assay: […]-GLO cell viability assay with vorinostat; format: cell-based; details: MDA-MB-175VII (Breast); 1 μg/ml + 1 μM Vorinostat
Calu3 = assay: […]-GLO cell viability assay with vorinostat; format: cell-based; details: Calu3 (Lung); 1 μg/ml + 1 μM Vorinostat
NCI-N87 = assay: […]-GLO cell viability assay with vorinostat; format: cell-based; details: NCI-N87 (Stomach); 1 μg/ml + 1 μM Vorinostat
PC3 = assay: […]-GLO cell viability assay with vorinostat; format: cell-based; details: PC3 (Prostate); 1 μg/ml + 1 μM Vorinostat
MDA-MB-361 = assay: […]-GLO cell viability assay with vorinostat; format: cell-based; details: MDA-MB-361 (Breast); 1 μg/ml + 10 μM Vorinostat
SKBR3 = assay: […]-GLO cell viability assay with vorinostat; format: cell-based, human; details: SKBR3 (Breast); 1 μg/ml + 1 μM Vorinostat
MCF7 = assay: […]-GLO cell viability assay with vorinostat; format: cell-based; details: MCF7 (Breast); 1 μg/ml + 10 μM Vorinostat
DU145 = assay: […]-GLO cell viability assay with vorinostat; format: cell-based, human; details: DU145 (Prostate); 1 μg/ml + 10 μM Vorinostat
786O = assay: […]-GLO cell viability assay with vorinostat; format: cell-based; details: 786O (Kidney); 1 μg/ml + 1 μM Vorinostat
SKOV3 = assay: […]-GLO cell viability assay with vorinostat; format: cell-based; details: SKOV3 (Ovary); 1 μg/ml + 1 μM Vorinostat
HPAFII = assay: […]-GLO cell viability assay with vorinostat; format: cell-based; details: HPAFII (Pancreas); 1 μg/ml + 10 μM Vorinostat
A549 = assay: […]-GLO cell viability assay with vorinostat; format: cell-based, human; details: A549 (Lung); 1 μg/ml + 10 μM Vorinostat
[2] = molecular target: cynomolgus monkey DR5 (His-tagged); assay: Biacore analysis of binding kinetics; parameters: ka / kd: unit not given here; details: tested as DR5×CD3 mAb 2 diabody
Experimental: Bispecific DR5×CD3 diabodies were incubated with His-tagged DR5 and the kinetics of binding was determined via Biacore analysis. […] FIG. 6, Panels A-D show the results for human DR5. FIG. 6, Panels E-H show the results for cynomolgus monkey DR5.

histidine tagged TRAIL = histidine tagged TRAIL (Homo sapiens, UniProt P50591); assay: binding to TRAIL-His coat; details: 2 μg/mL biotinylated; 1 μg/mL TRAIL-His coat
Experimental: The amount of immobilized biotinylated antibody was assessed.

[3] = a few patients; higher doses (20 mg per kg); cited from earlier work
[4] = test system: engrafted breast cancer cells; details: cited from earlier work
[5] = test system: astrocytoma and leukemia cells; details: cited from earlier work

Sequence of histidine tagged TRAIL (P50591 114-281 limits assumed): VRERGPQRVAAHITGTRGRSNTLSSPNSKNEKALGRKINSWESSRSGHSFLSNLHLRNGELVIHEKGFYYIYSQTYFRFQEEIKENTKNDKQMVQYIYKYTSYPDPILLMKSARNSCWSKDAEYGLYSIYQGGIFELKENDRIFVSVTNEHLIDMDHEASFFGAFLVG

soluble TRAIL: soluble TRAIL preparations
in vivo half-life [1]: approximately 30 minutes

R&D TRAIL/His: His-tagged TRAIL (R&D systems) used as a positive control [reference compound]
Net Gain (Average % Growth Inhibition) (Hs700T): 15.83%
Net Gain (Average % Growth Inhibition) (22RV1): 8.91%
Net Gain (Average % Growth Inhibition) (Hs746T): 31.81%
Net Gain (Average % Growth Inhibition) (BT474): 50.24%
Net Gain (Average % Growth Inhibition) (ES2): 79.12%
Average % Ctrl (COLO205; Vorinostat 0 μM, % Medium Ctrl (10% FBS), 10 ng/ml tetravalent molecule or 1 μg/ml DR5 mAb): 68.7%
Net Gain (Average % Growth Inhibition) (COLO205; Vorinostat 0.1 μM): 15%
Average % Ctrl (COLO205; Vorinostat 0.1 μM, normalized to medium + vorinostat): 54.1%
Net Gain (Average % Growth Inhibition) (COLO205; Vorinostat 1 μM): 24%
Average % Ctrl (COLO205; Vorinostat 1 μM, normalized to medium + vorinostat): 44.8%
Net Gain (Average % Growth Inhibition) (LNCap): 28.73%
Net Gain (Average % Growth Inhibition) (AsPC1): 11.86%
Net Gain (Average % Growth Inhibition) (MDA-MB-175VII): 24.17%
Net Gain (Average % Growth Inhibition) (Calu3): 9.96%
Net Gain (Average % Growth Inhibition) (NCI-N87): 35.97%
Net Gain (Average % Growth Inhibition) (PC3): 12.49%
Net Gain (Average % Growth Inhibition) (MDA-MB-361): 64.85%
Net Gain (Average % Growth Inhibition) (SKBR3): 43.10%
Net Gain (Average % Growth Inhibition) (MCF7): 0.79%
Net Gain (Average % Growth Inhibition) (DU145): 4.57%
Net Gain (Average % Growth Inhibition) (786O): 31.16%
Net Gain (Average % Growth Inhibition) (SKOV3): 33.93%
Net Gain (Average % Growth Inhibition) (HPAFII): 46.71%
Net Gain (Average % Growth Inhibition) (A549): 26.71%

DR5 mAb 4: conatumumab, known anti-human DR5 antibody; VL SEQ ID NO:62, VH SEQ ID NO:66
Kd [2]: 16.4 nM
ka [2]: 2.5 × 10^6
kd [2]: 4.1 × 10^−2

DR5-Fc fusion: human DR5-Fc fusion protein, biotinylated, tested on TRAIL-His coat [reference compound]
amount of immobilized biotinylated antibody (histidine tagged TRAIL): 0.288

DR5 mAb 3: drozitumab, known anti-human DR5 antibody; VL SEQ ID NO:54, VH SEQ ID NO:58
Kd [2]: 13.3 nM
ka [2]: 3.3 × 10^6
kd [2]: 4.4 × 10^−2

lexatumummab: anti-DR5 agonist antibody from Human Genome Sciences
hepatotoxicity [3]: Hepatotoxicity with increased serum alanine aminotransferase, aspartate aminotransferase and bilirubin

TRA-8/CS-1008: humanized anti-DR5 antibody (Daiichi Sankyo)
antitumor activity in vivo [4]: high antitumor activity
antitumor activity in vitro [5]: high antitumor activity
